Experimental data: article PMC7932537, “Quantitative profiling of protease specificity” (PLoS Computational Biology, 2021)

Columns and labels:
MMP-9 = MMP-9 (Homo sapiens, UniProt P14780); experiment: K(obs) of individual phage substrates (set of 1369); type: biochemical; details: MMP9
MMP-2 [1] = target: T1, MMP-2 (Homo sapiens, UniProt P08253); experiment: as above; type: biochemical; details: MMP2
T1 sequence (P08253 110-660): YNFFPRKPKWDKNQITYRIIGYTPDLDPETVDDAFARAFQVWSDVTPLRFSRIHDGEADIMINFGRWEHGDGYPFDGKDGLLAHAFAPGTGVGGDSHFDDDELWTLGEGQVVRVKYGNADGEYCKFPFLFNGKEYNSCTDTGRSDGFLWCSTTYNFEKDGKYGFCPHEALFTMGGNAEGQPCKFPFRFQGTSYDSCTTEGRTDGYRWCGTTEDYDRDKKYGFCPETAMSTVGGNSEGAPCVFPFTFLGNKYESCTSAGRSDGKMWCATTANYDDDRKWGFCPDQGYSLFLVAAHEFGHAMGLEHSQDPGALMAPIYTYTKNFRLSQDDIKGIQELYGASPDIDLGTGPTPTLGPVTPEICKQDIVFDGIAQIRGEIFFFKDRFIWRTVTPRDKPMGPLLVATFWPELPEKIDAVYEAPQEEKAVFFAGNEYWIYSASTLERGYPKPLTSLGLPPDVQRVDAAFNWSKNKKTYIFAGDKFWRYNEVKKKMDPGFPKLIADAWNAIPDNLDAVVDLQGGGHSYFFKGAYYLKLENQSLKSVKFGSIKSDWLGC

MMP-2 [2] = experiment: Substrate phage display with NGS: relative probability (RP) of P3-P1' tetramer clusters; type: biochemical, human; details: MMP2;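 further: ratio of tetramer probability after protease selection to that in naive phage library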
[3] = individual phage substrates, set of 1369 peptides, hyphen in sequence marks cleavage position
[4] = individual phage substrates, set of 1369 peptides, cleavage position marked by hyphen in sequence
[5] = RP of the P3-P1' tetramer contained in the substrate (substrate phage display with NGS)
[6] = individual phage substrate of the set of 1369 peptides, dash in the sequence marks the cleavage position
[7] = individual phage substrate of the set of 1369 peptides, cleavage position marked by '-'
[8] = RP of the P3-P1' tetramer contained in the substrate

Sequence of MMP-9 (P14780 94-707): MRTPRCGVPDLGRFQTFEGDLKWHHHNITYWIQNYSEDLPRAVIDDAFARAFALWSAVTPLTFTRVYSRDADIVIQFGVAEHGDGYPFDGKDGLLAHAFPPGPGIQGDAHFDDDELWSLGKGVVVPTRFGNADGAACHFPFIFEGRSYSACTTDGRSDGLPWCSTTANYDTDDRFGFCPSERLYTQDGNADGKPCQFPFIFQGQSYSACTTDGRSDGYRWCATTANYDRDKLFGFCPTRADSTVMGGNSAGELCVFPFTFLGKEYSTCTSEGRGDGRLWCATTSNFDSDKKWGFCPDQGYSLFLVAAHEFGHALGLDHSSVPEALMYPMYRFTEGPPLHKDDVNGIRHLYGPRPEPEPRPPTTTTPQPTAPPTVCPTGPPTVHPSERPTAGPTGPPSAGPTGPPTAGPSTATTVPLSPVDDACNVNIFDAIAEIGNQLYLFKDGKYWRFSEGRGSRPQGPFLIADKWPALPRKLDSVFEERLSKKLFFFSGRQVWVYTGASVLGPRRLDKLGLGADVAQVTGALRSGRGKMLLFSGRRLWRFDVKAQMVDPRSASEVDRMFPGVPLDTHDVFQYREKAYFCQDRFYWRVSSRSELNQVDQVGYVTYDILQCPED

Substance	Kobs (MMP-9; [3]) [M⁻¹ s⁻¹]	Kobs (MMP-2 [1]; [4]) [M⁻¹ s⁻¹]	relative probability (RP) (MMP-2 [2]; [5])	Kobs (MMP-9; [6]) [M⁻¹ s⁻¹]	Kobs (MMP-2 [1]; [7]) [M⁻¹ s⁻¹]	relative probability (RP) (MMP-2 [2]; [8])
SLVLN-MTASG	4613.14	3438.54	19.025	–	–	–
SLVRF-LTASG	–	–	–	12792.1	12792.1	15.0438
SMGSH-LTASG	0	1154.21	4.2785	–	–	–
SNLNS-TASGA	–	–	–	4470.66	4205.91	0.4784
SPPLA-LTASG	10866.7	10866.7	34.4921	–	–	–
SQPHL-LTASG	2097.28	1816.46	16.4802	–	–	–
SQPIH-MTASG	–	–	–	6688.74	2097.28	18.8886
SQPTG-LTASG	12792.1	12792.1	33.1098	–	–	–
SQVRF-LTASG	–	–	–	6688.74	8321.48	15.0438
SRAYS-LTASG	–	–	–	8941.32	7815.03	18.7071
SRYLP-MTASG	0	0	0.4306	–	–	–
SSVWH-ITASG	–	–	–	836.403	323.705	1.931
STIRM-LTASG	–	–	–	2157.02	2837.92	12.7446
STVFH-MTASG	1763.55	0	5.168	–	–	–
SVGLY-LTASG	–	–	–	0	418.952	0.07615
SYALH-LTASG	–	–	–	3964.21	12792.1	14.6488
TAPKL-LTASG	–	–	–	12792.1	7815.03	15.3454
TATNW-LTASG	–	–	–	0	5461.43	15.348
TFARS-LTASG	5889.62	8941.32	17.186	–	–	–
TFPFM-LTASG	–	–	–	12792.1	1981.53	19.624
TFWGA-LTASG	–	–	–	0	10866.7	26.3441
TGVSW-LTASG	10866.7	12792.1	30.6564	–	–	–
TILRN-ITASG	–	–	–	2837.92	7815.03	19.0698
TIPFY-MTASG	9740.44	3964.21	8.184	–	–	–
TKMAW-LTASG	–	–	–	1513.13	7015.91	31.5866
TKWLA-LTASG	3637.04	3079.62	1.218	–	–	–
TKYAY-ITASG	0	0	1.709	–	–	–

Substance	Kobs (MMP-9; [3]) [M⁻¹ s⁻¹]	Kobs (MMP-2 [1]; [4]) [M⁻¹ s⁻¹]	relative probability (RP) (MMP-2 [2]; [5])	Kobs (MMP-9; [6]) [M⁻¹ s⁻¹]	Kobs (MMP-2 [1]; [7]) [M⁻¹ s⁻¹]	relative probability (RP) (MMP-2 [2]; [8])
TMGMN-MTASG	517.582	142.481	0	–	–	–
TNPIM-LTASG	1071.29	418.952	15.4441	–	–	–
TQVFG-LTASG	5461.43	2687.73	12.5523	–	–	–
TRIAY-LTASG	–	–	–	3165.09	12792.1	27.9862
TRLAH-VTASG	0	1660.66	11.7405	–	–	–
TSFRM-LTASG	0	0	0.2112	–	–	–
TSLAN-LTASG	0	9740.44	34.4823	–	–	–
TSPVA-LTASG	–	–	–	12792.1	12792.1	34.2983
TTHYS-LTASG	142.481	0	0.1694	–	–	–
TTLRW-WTASG	690.17	1816.46	6.313	–	–	–
TTPSW-LTASG	12792.1	9740.44	35.705	–	–	–
TTPYH-ITASG	–	–	–	12792.1	4922.1	15.3574
TTYMS-LTASG	–	–	–	0	0	0.07249
TVLNS-LTASG	0	3438.54	18.3633	–	–	–
TVPQM-ITASG	–	–	–	7815.03	5269.78	16.6558
TVPRA-WTASG	8941.32	8941.32	34.1791	–	–	–
TVPYQ-LTASG	–	–	–	12792.1	12792.1	25.4279
TVSYA-LTASG	2687.73	1154.21	4.7967	–	–	–
TVTQN-LTASG	–	–	–	0	1327.88	7.238
TVVAY-ITASG	–	–	–	1112.44	12792.1	18.7179
VDIRM-LTASG	–	–	–	3079.62	5889.62	12.7446
VFPMS-LTASG	–	–	–	12792.1	12792.1	32.4868
VFTRN-LTASG	–	–	–	6396.07	12792.1	12.3403
VFVSN-LTASG	9740.44	12792.1	33.8801	–	–	–
VHFAS-LTASG	–	–	–	1030.73	12792.1	15.5827
VIPRP-LTASG	–	–	–	12792.1	12792.1	34.3303
